Converted amounts (≈) assume the structure as drawn. Where two headings read alike, the source gives them in different places.
How the values were obtained:
RVFV MP-12 = experiment: microbe, parasite or virus in culture; assay type: cell-based, Rift Valley fever virus; conditions: for EC50: read-out: Estimated EC50
Human RNase H1 = biological target: T1, Human RNase H1 (Homo sapiens, UniProt O60930); experiment: biochemical
T1 construct: made in house; host or cells: E. coli
T1 sequence (O60930 1-286): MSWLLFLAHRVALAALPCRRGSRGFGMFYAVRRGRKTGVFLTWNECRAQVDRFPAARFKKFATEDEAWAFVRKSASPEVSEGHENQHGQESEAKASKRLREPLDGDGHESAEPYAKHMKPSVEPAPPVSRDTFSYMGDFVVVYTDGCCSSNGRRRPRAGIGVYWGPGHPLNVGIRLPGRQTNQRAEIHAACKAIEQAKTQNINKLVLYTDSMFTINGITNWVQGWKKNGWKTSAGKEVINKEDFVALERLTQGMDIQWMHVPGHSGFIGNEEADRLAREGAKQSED

C. neoformans = experiment: microbe, parasite or virus in culture; assay type: cell-based; conditions: for MIC80: Cryptococcus neoformans, read-out: C. neoformans (MIC80, μM)
RVFV strain MP-12 [1] = experiment: microbe, parasite or virus in culture; assay type: cell-based, Rift Valley fever virus
Staphylo-coccus spp. = experiment: organism not typed; assay type: cell-based
RVFV strain MP-12 [2] = experiment: microbe, parasite or virus in culture; assay type: cell-based, Rift Valley fever virus; conditions: read-out: A549 EC50
LACV = experiment: microbe, parasite or virus in culture; assay type: cell-based, La Crosse virus; conditions: read-out: LACV EC50
ZIKV = experiment: microbe, parasite or virus in culture; assay type: cell-based, Zika virus; conditions: read-out: ZIKV EC50
in vitro = conditions: African green monkey
[3] = read-out: Human RNase H1 (IC50)
[4] = Rift Valley fever virus, A549, 24 h
[5] = La Crosse virus, Vero C1008, 24 h
[6] = Rift Valley fever virus, Vero, 24 h
[7] = Rift Valley fever virus, Vero, read-out: Vero EC50

**Q.** With `COc1ccc(/C=C/C(=O)c2ccccc(=O)c2O)cc1` [Compound 342] as the compound, how does the EC50 (RVFV MP-12) read?
**A.** 2 µM

**Q.** What about the CC50 (HepDES19) of the same compound?
**A.** 30.4 µM

**Q.** What about the IC50 (Human RNase H1; [3]) of the same compound?
**A.** > 500 µM

**Q.** What about the CC50 (Vero cells) of the same compound?
**A.** > 120 µM

**Q.** What about the “C. neoformans (MIC80, μM)” value (C. neoformans) of the same compound?
**A.** 24 µM

**Q.** And the EC50 (RVFV strain MP-12 [1]; read-out: EC50)?
**A.** 55.5 µM

**Q.** For `CSc1cccc(O)c(=O)c1O` [Compound 385], which CC50 (HepDES19) is on record?
**A.** 100 µM

**Q.** What about the IC50 (Human RNase H1; [3]) of the same compound?
**A.** 176 µM

**Q.** And the CC50 (Vero cells)?
**A.** > 120 µM

**Q.** What about the “C. neoformans (MIC80, μM)” value (C. neoformans) of the same compound?
**A.** 24 µM

**Q.** And the EC50 (RVFV strain MP-12 [1]; read-out: RVFV (EC50))?
**A.** 25.2 µM

**Q.** With `CC(=Nc1ccccc1F)c1c(C)cc(=O)n(O)c1O` [Compound 516] as the compound, how does the EC50 (RVFV MP-12) read?
**A.** 19 µM

**Q.** And the CC50 (Vero cells)?
**A.** > 120 µM

**Q.** What does the source list for `COc1ccc(CON=C(C)c2c[nH]c(=O)[nH]c2=O)cc1` [Compound 522]?
**A.** EC50 (RVFV MP-12): > 1 µM; CC50 (Vero cells): 1 µM

**Q.** Which EC50 (RVFV MP-12) does the source give for `Cc1cc(O)c(=O)c(O)cc1C(=O)NCc1ccc(-c2ccccc2)cc1` [Compound 539] here?
**A.** 10 µM

**Q.** What about the CC50 (HepDES19) of the same compound?
**A.** 3.6 µM

**Q.** And the IC50 (Human RNase H1; [3])?
**A.** 105 µM

**Q.** And the “Staphylo-coccus spp. (MIC80, μM)” value (Staphylo-coccus spp.)?
**A.** 38 µM

**Q.** And the “C. neoformans (MIC80, μM)” value (C. neoformans)?
**A.** 4.5 µM

**Q.** And the EC50 (RVFV strain MP-12 [1]; read-out: EC50)?
**A.** 18.6 µM

**Q.** What does the source list for `CC(=Nc1ccccc1Cl)c1c(C)cc(=O)n(O)c1O` [Compound 668]?
**A.** EC50 (RVFV strain MP-12 [2]): 35.7 µM; CC50 (A549 cells): 82 µM; EC50 (RVFV MP-12): 11 µM; CC50 (HepDES19): 76.8 µM; IC50 (Human RNase H1; [3]): 165 µM; CC50 (Vero cells): > 120 µM; EC50 (LACV): > 120 µM; EC50 (ZIKV): > 120 µM; EC50 (RVFV strain MP-12 [1]; read-out: EC50): 19.2 µM; EC50 (RVFV strain MP-12 [1]; read-out: Vero EC50): 19.2 µM

**Q.** With `C/C(=N\c1ccc(Cl)c(Cl)c1)c1c(C)cc(O)n(O)c1=O` [Compound 670] as the compound, how does the EC50 (RVFV strain MP-12 [2]; [4]) read?
**A.** 15.3 µM

**Q.** What about the EC50 (RVFV MP-12; Rift Valley fever virus, Vero) of the same compound?
**A.** 10 µM

**Q.** What about the IC50 (Human RNase H1) of the same compound?
**A.** 356 µM

**Q.** And the CC50 (Vero cells; African green monkey)?
**A.** > 120 µM

**Q.** And the EC50 (LACV; [5])?
**A.** > 120 µM

**Q.** What about the EC50 (ZIKV; Zika virus, Vero C1008, 48 h) of the same compound?
**A.** > 120 µM

**Q.** What about the MIC80 (C. neoformans) of the same compound?
**A.** 69 µM (≈ 22.6 µg/mL)

**Q.** And the EC50 (RVFV strain MP-12 [1]; [6])?
**A.** 14 µM

**Q.** And the EC50 (RVFV strain MP-12 [1]; [7])?
**A.** 14 µM

**Q.** What about the CC50 (in vitro; CC50) of the same compound?
**A.** > 120 µM

**Q.** Which results are given for `COc1ccc(Cl)cc1C(=O)Sc1cccccc1=O` [Compound 681]?
**A.** EC50 (RVFV MP-12): > 2 µM; CC50 (Vero cells): 2 µM

**Q.** With `CCCCCCS(=O)(=O)c1ccc(S(=O)(=O)CCCCCC)c(O)c(=O)c1O` [Compound 700] as the compound, how does the “Estimated EC50” value (RVFV MP-12) read?
**A.** inactive

**Q.** And the EC50 (RVFV MP-12; Rift Valley fever virus, Vero)?
**A.** > 120 µM

**Q.** And the CC50 (in vitro; Estimated CC50)?
**A.** > 120 µM

**Q.** With `O=c1c(O)c(SCc2ccccc2)ccc(SCc2ccccc2)c1O` [Compound 703] as the compound, how does the EC50 (RVFV MP-12) read?
**A.** 9 µM

**Q.** What about the CC50 (HepDES19) of the same compound?
**A.** 8.2 µM

**Q.** And the IC50 (Human RNase H1; [3])?
**A.** 61 µM

**Q.** What about the “Staphylo-coccus spp. (MIC80, μM)” value (Staphylo-coccus spp.) of the same compound?
**A.** 13 µM

**Q.** What about the “C. neoformans (MIC80, μM)” value (C. neoformans) of the same compound?
**A.** 7.0 µM

**Q.** What about the EC50 (RVFV strain MP-12 [1]; read-out: EC50) of the same compound?
**A.** 16.1 µM

**Q.** For `Cc1cc(O)c(=O)c(O)cc1C(=O)NCCc1ccccc1` [Compound 710], which EC50 (RVFV MP-12) is on record?
**A.** 17 µM

**Q.** What about the CC50 (Vero cells) of the same compound?
**A.** > 120 µM

**Q.** Which EC50 (RVFV MP-12) does the source give for `Cc1cc(O)c(=O)c(O)cc1C(=O)Nc1ccc(F)cc1F` [Compound 711] here?
**A.** 17 µM

**Q.** What about the CC50 (Vero cells) of the same compound?
**A.** > 120 µM

**Q.** Which EC50 (RVFV MP-12) does the source give for `Cc1cc(O)c(=O)c(O)cc1C(=O)N1CCSC1` [Compound 712] here?
**A.** > 20 µM

**Q.** And the CC50 (Vero cells)?
**A.** 20 µM

**Q.** With `Cc1cc(O)c(=O)c(O)cc1C(=O)Nc1cccc(Cc2ccccc2)c1` [Compound 799] as the compound, how does the EC50 (RVFV MP-12) read?
**A.** 17 µM

**Q.** And the CC50 (Vero cells)?
**A.** 62 µM

**Q.** Which EC50 (RVFV MP-12) does the source give for `Cc1ccc(CNC(=O)c2cc(O)c(=O)c(O)cc2C)c(C)c1` [Compound 809] here?
**A.** 17 µM

**Q.** And the CC50 (Vero cells)?
**A.** 64 µM

**Q.** Which EC50 (RVFV MP-12) does the source give for `Cc1cc(O)c(=O)c(O)cc1C(=O)Nc1cccc(OCc2ccccc2)c1` [Compound 836] here?
**A.** 13 µM

**Q.** And the CC50 (Vero cells)?
**A.** > 120 µM

**Q.** Which results are given for `Cc1ccc(Sc2cccc(O)c(=O)c2O)cc1` [Compound 838]?
**A.** EC50 (RVFV MP-12): 8 µM; CC50 (HepDES19): 18.6 µM; IC50 (Human RNase H1; [3]): 100 µM; C. neoformans (MIC80, μM) (C. neoformans): 1.0 µM; EC50 (RVFV strain MP-12 [1]; read-out: EC50): 12.7 µM

**Q.** For `Cc1cc(O)c(=O)c(O)cc1C(=O)N[C@@H](CCC(=O)OC(C)(C)C)C(=O)OC(C)(C)C` [Compound 867], which EC50 (RVFV strain MP-12 [2]; [4]) is on record?
**A.** 33 µM

**Q.** And the EC50 (RVFV MP-12; Rift Valley fever virus, Vero)?
**A.** 6.66 µM

**Q.** And the EC50 (LACV; [5])?
**A.** > 120 µM

**Q.** And the EC50 (ZIKV; Zika virus, Vero C1008, 48 h)?
**A.** > 120 µM

**Q.** What about the MIC80 (C. neoformans) of the same compound?
**A.** 9 µM (≈ 3.94 µg/mL)

**Q.** And the EC50 (RVFV strain MP-12 [1]; [6])?
**A.** 8.7 µM

**Q.** What about the EC50 (RVFV strain MP-12 [1]; [7]) of the same compound?
**A.** 8.7 µM

**Q.** What about the CC50 (in vitro; CC50) of the same compound?
**A.** > 120 µM

**Q.** What about the CC50 (in vitro; Vero CC50) of the same compound?
**A.** > 120 µM

**Q.** Which CC50 (Vero cells) does the source give for `Cc1cc(O)c(=O)c(O)cc1C(=O)N1CCN(C(=O)C2COc3ccccc3O2)CC1` (stereo not drawn) [Compound 876] here?
**A.** > 120 µM

**Q.** For `Cc1cc(O)c(=O)c(O)cc1C(=O)N1CCN(c2ccc([N+](=O)[O-])c3nonc23)CC1` [Compound 920], which EC50 (RVFV MP-12) is on record?
**A.** 19 µM

**Q.** What about the CC50 (Vero cells) of the same compound?
**A.** > 120 µM

**Q.** Which EC50 (RVFV MP-12) does the source give for `Cc1cc(O)c(=O)c(O)cc1C(=O)NCc1ccc(N2CCCC2)cc1` [Compound 1019] here?
**A.** 19 µM

**Q.** And the CC50 (Vero cells)?
**A.** > 120 µM

**Q.** What does the source list for `CCCCNC(=O)c1cc(O)c(=O)c(O)cc1C` [Compound 1039]?
**A.** EC50 (RVFV strain MP-12 [2]; [4]): 15.5 µM; EC50 (RVFV MP-12; Rift Valley fever virus, Vero): 6 µM; IC50 (Human RNase H1): 209 µM; CC50 (Vero cells; African green monkey): > 120 µM; EC50 (LACV; [5]): > 120 µM; EC50 (ZIKV; Zika virus, Vero C1008, 48 h): > 120 µM; MIC80 (C. neoformans): 12 µM (≈ 3.02 µg/mL); EC50 (RVFV strain MP-12 [1]; [6]): 8.9 µM; EC50 (RVFV strain MP-12 [1]; [7]): 8.9 µM; CC50 (in vitro; Vero CC50): > 120 µM

— article PMC9481026 (PLoS ONE, 2022)
